# Data reported in PMC4533973, “Synthesis and Evaluation of Chloramphenicol Homodimers: Molecular Target, Antimicrobial Activity, and Toxicity against Human Cells” (PLoS ONE, 2015).
# Read-outs that look alike come from different tables or passages of the source.
# How the values were obtained:
# [1] = test system: MRSA (GRE2691); test: Antibacterial activity (growth inhibition, EC50); type: cell-based; conditions: Staphylococcus aureus
# Excerpt: (§1) A.S. Mankin (University of Illinois). E. coli ΔtolC strain BL21 DE3 with impaired AcrAB-TolC, a proton-dependent MDR efflux pump causing multidrug resistance, was offered by Dr D.N. Wilson (University of Munich) and included in our study to test if this mechanism of resistance affects the efficacy of CAM dimers. […] I. Spiliopoulou (National Reference Laboratory for Staphylococci, School of Medicine, University of Patras, Greece). Finally, E. coli strain Rosetta(DE3)pLysS, containing a chloramphenicol resistant gene in the pLysS plasmid, was purchased from Novagen and was also included in our study. Briefly, S. aureus or E. coli cells (200 μl of a 0.700 OD560 preculture) containing wild-type or mutant ribosomes were added in 3.8 ml of LB (Luria-Bertani) medium and grown at 37°C in the presence or absence of CAM or CAM dimers until the optical density of the control culture (grown in the absence of drug) reached the value 0.700 at 560 nm. For E. faecium and P. aeruginosa cultures, TSB (Tryptic Soy Broth) medium was used, instead of LB medium, in order to achieve exponential doubling times between 25 and 35 minutes. From dose-response curves, the half-maximal effective concentration (EC50) for each compound and strain was estimated. EC50 represents the molar concentration of a compound that produces 50% of the maximal possible effect. The EC50 values were mathematically determined by non linear regression fitting of the observed culture optical-density values, expressed as the percentage of 0.700 (y), into Hill Equation, y=min+max−min/1+(x/EC50)^−n where min and max are the lowest and highest observed values of the culture optical density, respectively, x the concentration of the tested compound, and n the Hill coefficient that represents the largest absolute value of the curve slope. EC50 is equal to the x- value of the sigmoid’s midpoint. Fitting was performed using the Four Parameter Logistic Curve of the SigmaPlot Program Version 11.0 (Systat Software, Inc) for Exact Graphs and Data Analysis.
# [2] = test system: MRSA (GRE2272); test: Antibacterial activity (growth inhibition, EC50); type: cell-based; conditions: Staphylococcus aureus
# Excerpt: as §1
# [3] = test system: E. faecium (GRE5152); test: Antibacterial activity (growth inhibition, EC50); type: cell-based; conditions: Enterococcus faecium
# Excerpt: as §1
# [4] = test system: S. aureus (WT); test: Antibacterial activity (growth inhibition, EC50); type: cell-based; conditions: Staphylococcus aureus
# Excerpt: as §1
# [5] = test system: P. aeruginosa (GRE5288); test: Antibacterial activity (growth inhibition, EC50); type: cell-based, Pseudomonas aeruginosa
# Excerpt: as §1
# [6] = test system: post-translocation ribosomal complex (complex C) derived from E. coli; set-up: method as in Xaplanteri et al., [6]; conditions: ref Xaplanteri et al., [6], cited from earlier work
# [7] = test system: Escherichia coli ribosomes; set-up: method as in earlier work; conditions: equilibrium dialysis, cited from earlier work
# [8] = test system: E. coli (ΔtolC); test: Antibacterial activity (growth inhibition, EC50); type: cell-based, Escherichia coli
# Excerpt: as §1
# [9] = test system: E. coli (A2503C); test: Antibacterial activity (growth inhibition, EC50); type: cell-based, Escherichia coli; conditions: Escherichia coli
# Excerpt: as §1
# [10] = test system: E. coli Rosetta(DE3)pLysS; test: Antibacterial activity (growth inhibition, EC50); type: cell-based, Escherichia coli; conditions: Escherichia coli
# Excerpt: as §1
# [11] = test system: E. coli (A2058G); test: Antibacterial activity (growth inhibition, EC50); type: cell-based, Escherichia coli; conditions: Escherichia coli
# Excerpt: as §1
# [12] = test system: E. coli (WT); test: Antibacterial activity (growth inhibition, EC50); type: cell-based, Escherichia coli
# Excerpt: as §1
# [13] = molecular target: ribosome; set-up: method as in PMID 14654696; conditions: read-out: K i, cryptic low-affinity site (entrance to the exit tunnel); cited from earlier work
# [14] = test system: Jurkat cells; test: Toxicity assays in Jurkat cells (cell counting, necrosis and apoptosis by flow cytometry); type: cell-based, Human; conditions: 60 μM; flow cytometry
# Protocol: Fig 8 Toxicity assays in Jurkat cells. Jurkat cells were adjusted to 1×10^9 cells/L in RPMI-1640 medium containing 1% Penicillin/Streptomycin and 10% fetal bovine serum. The cells were grown in triplicate in the presence or absence of compound 5 at the indicated concentrations for 4 days at 37°C, under a humidified 5% CO2 atmosphere. CAM was used as a reference compound. For cell necrosis and apoptosis assays, samples (10^6 cells) were collected daily and determined by flow cytometry. Apoptotic and necrotic cells were expressed as a percentage of total cells.
# Human leukemic cell lines, HS-Sultan (Burkitt’s lymphoma), Jurkat (T-cell acute lymphoblastic leukemia), and U937 (histiocytic lymphoma), were adjusted to 1×10^9 cells/l in RPMI-1640 medium supplemented with 10% fetal bovine serum and 1% penicillin/streptomycin. The cells were grown in triplicate in the absence (control cultures) or presence of CAM or CAM dimers for 4 days at 37°C, under a humidified 5% CO2 atmosphere. The medium was changed daily; CAM or CAM dimer addition was repeated after medium change. Aliquots were collected daily and counted in a CELL-DYN 3700 Hematology Analyzer. For cell necrosis and apoptosis assays, samples (10^6 cells) were collected and determined using the Annexin V-PE Apoptosis Detection Kit I (BD Pharmingen) for flow cytometry, according to the manufacturers’ instructions. Flow cytometry data were analyzed using the FlowJo flow cytometry analysis software. Necrotic and apoptotic cells were expressed as a percentage of total cells.
smiles,measurement,setting,value
"O=C(N[C@H](CO)[C@H](O)c1ccc([N+](=O)[O-])cc1)C(Cl)Cl [CAM, chloramphenicol]",EC50,[1],12.8 ± 1.5 µM
same,EC50,[2],8.4 ± 0.7 µM
same,EC50,[3],3.5 ± 0.3 µM
same,EC50,[4],2.9 ± 0.1 µM
same,fold higher EC50 value than wild-type E. coli,[5]; P. aeruginosa versus wild-type E. coli,6 fold
same,EC50,[5]; Pseudomonas aeruginosa,25.6 ± 2.2 µM
same,Ki,[6]; encounter complex CI,3.1 ± 0.3 µM
same,Ki,[6]; overall inhibition constant,0.88 ± 0.07 µM
same,k off,[6],0.0165 ± 0.00067 s⁻¹
same,Kd,"[7]; read-out: K D, high affinity site",2 µM
same,Kd,"[7]; read-out: K D, low affinity site",200 µM
same,fold more sensitive than wild-type E. coli,[8]; E. coli BL21 DE3 (ΔtolC) versus wild-type E. coli,approximately 2 fold
same,EC50,"[8]; Escherichia coli, BL21-DE3",2.2 ± 0.1 µM
same,EC50,[9],24.9 ± 2.5 µM
same,EC50,[10],115 ± 16.3 µM
same,EC50,[11],15.9 ± 1.1 µM
same,EC50,"[12]; Escherichia coli, LB medium, 37°C, OD560",4.4 ± 0.2 µM
same,EC50(cell growth)/IC50(puro),"[12]; wild-type E. coli, IC50(puro) calculated from Ki* at 2 mM puromycin",0.84 ± 0.07
same,Ki,[13],~300 µM
same,"apoptosis, expressed as a percentage of total cells",[14],did not induce any necrosis/apoptosis effect
same,necrosis,[14],did not induce any necrosis/apoptosis effect
